Experimental findings from ChEMBL document CHEMBL1128258, “[[(Guaninylalkyl)phosphinico]methyl]phosphonic acids. Multisubstrate analogue inhibitors of human erythrocyte purine nucleoside phosphorylase” (J Med Chem, 1995) are described below.

The target in experiment [1] is T1, Purine nucleoside phosphorylase (Homo sapiens, UniProt P00491).
T1 sequence (P00491 whole entry): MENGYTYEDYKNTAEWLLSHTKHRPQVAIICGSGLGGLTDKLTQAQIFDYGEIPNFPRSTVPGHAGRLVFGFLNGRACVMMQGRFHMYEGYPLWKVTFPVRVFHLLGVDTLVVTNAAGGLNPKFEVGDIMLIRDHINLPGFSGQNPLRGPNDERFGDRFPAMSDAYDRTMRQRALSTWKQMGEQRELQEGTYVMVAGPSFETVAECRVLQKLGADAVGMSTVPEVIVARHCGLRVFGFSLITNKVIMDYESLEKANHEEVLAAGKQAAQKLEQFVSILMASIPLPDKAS
As to the kind of experiment: Inhibition of human erythrocyte purine nucleoside phosphorylase (PNPase) in the presence of ethylenediaminetetraacetic acid (Na2 EDTA).

Experiment [2] deals with T1, Purine nucleoside phosphorylase. In words: Inhibition of human erythrocyte purine nucleoside phosphorylase (PNPase) in the presence of zinc chloride.

pKi: −log10 of the molar value.

In the case of `CCOP(=O)(O)CP(=O)(O)CCCCCn1cnc2c(O)nc(N)nc21`, the negative-log Ki (pKi) in experiment [1] is 4.85; in experiment [2] it was 5.96.
With `Nc1nc(O)c2ncn(CCCCCCCP(=O)(O)CP(=O)(O)O)c2n1`, the pKi was 5.96 in experiment [1] and 8.00 in experiment [2].
For `O=c1[nH]c(=O)c2ncn(CCCCCP(=O)(O)CP(=O)(O)O)c2[nH]1` the same measures were 3.57 and 5.85.
For `Nc1nc(O)c2ncn(CCCCCCP(=O)(O)CP(=O)(O)O)c2n1` the same measures were 6.41 and 8.43.
As for `Nc1nc(O)c2ncn(CCCCP(=O)(O)CP(=O)(O)O)c2n1`, the pKi in experiment [1] was 5.85; in experiment [2], 7.00.

For orientation: pKi means −log10 of the Ki, conventionally taken in molar units.
